“And” between values parts separate entries of the source, which are not always exact repeats. Identical values can stand only once.
Tests used:
[1] = Cytotoxicity MTT assay, PC-3 prostate adenocarcinoma; format: cell-based, human; settings: human, MDCK normal cells versus PC-3 prostate adenocarcinoma cells; CC50 MDCK normal cells / PC-3; read-out: Selectivity index (SI) of cytotoxic activity
Protocol: (§1) Three types of cancer cell lines obtained from the American Type Culture Collection (ATCC) were cultured: two oral-laryngeal cancer cell lines, nasopharynx carcinoma (KB, ATCC-CCL-17) and laryngeal carcinoma (Hep-2, ATCC-CCL-23); two cervix-uterine cancer cell lines, cervix adenocarcinoma (HeLa, ATCC-CCL-2) and cervix squamous carcinoma (SiHa, ATCC-HTB-35); and two prostate cancer cell lines, prostate carcinoma (DU-145, ATCC-HTB-81) and prostate adenocarcinoma (PC-3, ATCC-CRL-1435); along with one normal cell line (MDCK, ATCC-CCL-34). The cells were cultured in sterile Costar T75 flasks containing DMEM (Gibco, Hong Kong, China), supplemented with fetal bovine serum (10%, v/v), 100 U/mL penicillin G, and […] streptomycin at 37 °C in an atmosphere of 5% CO2 (95% humidity). At 70%–80% confluence, cells were detached from the cultured flask by treatment with 0.05% trypsin-EDTA (Gibco), and a suspension of 5 × 10^4 cells/mL of viable cells was seeded in a 96-well microtiter plate (Costar, Washington, DC, USA) and incubated. Cytotoxicity was assessed by the MTT assay as previously described by Rahman. When cells reached 90% confluence in a microtiter plate, the DMEM was replaced with fresh medium and cells were incubated with compounds at various concentrations. […] The medium was aspirated, and the formazan product was solubilized with acidified isopropanol (0.4 N HCl). The amount of MTT-formazan is directly proportional to the number of living cells and was determined by measuring the optical density (OD) at 590 nm using a bioassay reader (Bio-Rad). All determinations were performed in triplicate. The cytotoxic and antiproliferative activities of tested compounds were calculated as the percentage of cells killed or the percentage of inhibition of cell proliferation, respectively, using the equation: growth inhibition (%) = (ODcontrol − ODsample/ODcontrol) × 100. […] In addition, the level of cytotoxicity on normal cells was evaluated by determining the selectivity index (SI) of each compound, which is calculated as the ratio of cytotoxicity or reduced cell growth on normal cells to cancer cells (SI = normal cells/cancer cells).

[2] = system: PC-3; assay: as above; format: cell-based, human; settings: Homo sapiens; PC-3, MTT, 72 h; read-out: Cytotoxic activity CC50
Protocol: as §1

[3] = system: PC-3; assay: Antiproliferative sulforhodamine B assay, PC-3; format: cell-based; settings: Homo sapiens; PC-3, SRB, 48 h
Protocol: (§2) Three types of cancer cell lines obtained from the American Type Culture Collection (ATCC) were cultured: two oral-laryngeal cancer cell lines, nasopharynx carcinoma (KB, ATCC-CCL-17) and laryngeal carcinoma (Hep-2, ATCC-CCL-23); two cervix-uterine cancer cell lines, cervix adenocarcinoma (HeLa, ATCC-CCL-2) and cervix squamous carcinoma (SiHa, ATCC-HTB-35); and two prostate cancer cell lines, prostate carcinoma (DU-145, ATCC-HTB-81) and prostate adenocarcinoma (PC-3, ATCC-CRL-1435); along with one normal cell line (MDCK, ATCC-CCL-34). The cells were cultured in sterile Costar T75 flasks containing DMEM (Gibco, Hong Kong, China), supplemented with fetal bovine serum (10%, v/v), 100 U/mL penicillin G, and […] streptomycin at 37 °C in an atmosphere of 5% CO2 (95% humidity). At 70%–80% confluence, cells were detached from the cultured flask by treatment with 0.05% trypsin-EDTA (Gibco), and a suspension of 5 × 10^4 cells/mL of viable cells was seeded in a 96-well microtiter plate (Costar, Washington, DC, USA) and incubated.
(§3) The growth inhibition of cancer cells was evaluated by the sulforhodamine B method. When cells reached 70% confluence in a microtiter plate, the medium was replaced with DMEM 5% FBS and samples at various concentrations. After 48 h, the medium was discarded, and cells were fixed by adding 50 μL of 10% trichloroacetic acid (TCA, Sigma-Aldrich Chemical, St. Louis, MO, USA). The cells were then incubated at 4 °C for 30 min; TCA was drained off, and the plates were left to dry. Then, 50 μL of SRB stain (10 mg of 1% acetic acid, Sigma) were added to each well for 30 min. Finally, the plates were washed four times with 1% acetic acid (100 μL). The OD was measured at 540 nm using an ELISA reader (Bio-Rad). Docetaxel was used as a positive control, whereas cells incubated only with 0.05% of DMSO were used as a negative control. All determinations were performed in triplicate.
(§4) The cytotoxic and antiproliferative activities of tested compounds were calculated as the percentage of cells killed or the percentage of inhibition of cell proliferation, respectively, using the equation: growth inhibition (%) = (ODcontrol − ODsample/ODcontrol) × 100. […] In addition, the level of cytotoxicity on normal cells was evaluated by determining the selectivity index (SI) of each compound, which is calculated as the ratio of cytotoxicity or reduced cell growth on normal cells to cancer cells (SI = normal cells/cancer cells). It is generally considered that biological efficacy is not due to general toxicity when SI ≥ 10 [17].

[4] = system: DU-145; assay: Antiproliferative sulforhodamine B assay, DU-145; format: cell-based, human; settings: for IC50: Homo sapiens, DU-145, SRB, 48 h
Protocol: as §2, §3, §4

[5] = system: MDCK; assay: Antiproliferative sulforhodamine B assay, MDCK normal cell line; format: cell-based; settings: Canis lupus familiaris, SRB, 48 h
Protocol: as §2, §3, §4

[6] = system: SiHa; assay: Antiproliferative sulforhodamine B assay, SiHa; format: cell-based, human; settings: for IC50: Homo sapiens, SiHa, SRB, 48 h; for Selectivity index (SI) of antiproliferative activity: IC50 MDCK normal cells / SiHa
Protocol: as §2, §3, §4

[7] = system: Hep-2; assay: Cytotoxicity MTT assay, Hep-2 laryngeal carcinoma; format: cell-based, human; settings: Homo sapiens; Hep-2, MTT, 72 h; read-out: Cytotoxic activity CC50
Protocol: as §1

[8] = system: SiHa; assay: Cytotoxicity MTT assay, SiHa cervix squamous carcinoma; format: cell-based, human; settings: Homo sapiens; SiHa, MTT, 72 h; read-out: Cytotoxic activity CC50
Protocol: as §1

[9] = system: HeLa; assay: Cytotoxicity MTT assay, HeLa cervix adenocarcinoma; format: cell-based, human; settings: Homo sapiens; HeLa, MTT, 72 h; read-out: Cytotoxic activity CC50
Protocol: as §1

[10] = system: Hep-2; assay: Antiproliferative sulforhodamine B assay, Hep-2; format: cell-based, human; settings: for IC50: Homo sapiens, Hep-2, SRB, 48 h
Protocol: as §2, §3, §4

[11] = system: KB; assay: Cytotoxicity MTT assay, KB nasopharynx carcinoma; format: cell-based, human; settings: Homo sapiens; KB, MTT, 72 h; read-out: Cytotoxic activity CC50
Protocol: as §1

[12] = Cytotoxicity MTT assay, MDCK normal cell line; format: cell-based; settings: dog, MDCK cells (normal cell line), read-out: Cytotoxic activity CC50
Protocol: as §1

[13] = system: HeLa; assay: Antiproliferative sulforhodamine B assay, HeLa; format: cell-based, human; settings: for IC50: Homo sapiens, HeLa, SRB, 48 h
Protocol: as §2, §3, §4

[14] = system: DU-145; assay: Cytotoxicity MTT assay, DU-145 prostate carcinoma; format: cell-based, human; settings: Homo sapiens; DU-145, MTT, 72 h; read-out: Cytotoxic activity CC50
Protocol: as §1

[15] = Cytotoxicity MTT assay, DU-145 prostate carcinoma; format: cell-based, human; settings: human, MDCK normal cells versus DU-145 prostate carcinoma cells; CC50 MDCK normal cells / DU-145; read-out: Selectivity index (SI) of cytotoxic activity
Protocol: as §1

[16] = system: KB; assay: Antiproliferative sulforhodamine B assay, KB; format: cell-based, human; settings: for IC50: Homo sapiens, KB, SRB, 48 h; for Selectivity index (SI) of antiproliferative activity: IC50 MDCK normal cells / KB
Protocol: as §2, §3, §4

[17] = system: tested cell lines; assay: Cytotoxicity and antiproliferative bioassays, whole panel of tested cell lines; format: cell-based; settings: all tested cell lines
Protocol: as §2, with “At 70%–80% confluence, cells were detached from the cultured flask by treatment with 0.05% trypsin-EDTA (Gibco), and a suspension of 5 × 10^4 cells/mL of viable cells was seeded in a 96-well microtiter plate (Costar, Washington, DC, USA) and incubated.” left out
Cytotoxicity was assessed by the MTT assay as previously described by Rahman. […] The amount of MTT-formazan is directly proportional to the number of living cells and was determined by measuring the optical density (OD) at 590 nm using a bioassay reader (Bio-Rad). […]
The growth inhibition of cancer cells was evaluated by the sulforhodamine B method. […] The OD was measured at 540 nm using an ELISA reader (Bio-Rad). […]

[18] = Cytotoxicity MTT assay, Hep-2 laryngeal carcinoma; format: cell-based, human; settings: dog MDCK normal cells versus Hep-2 laryngeal carcinoma cells; CC50 MDCK normal cells / Hep-2; read-out: Selectivity index (SI) of cytotoxic activity
Protocol: as §1

[19] = Cytotoxicity MTT assay, SiHa cervix squamous carcinoma; format: cell-based, human; settings: human; CC50 MDCK normal cells / SiHa; read-out: Selectivity index (SI) of cytotoxic activity
Protocol: as §1

[20] = Cytotoxicity MTT assay, HeLa cervix adenocarcinoma; format: cell-based, human; settings: human, MDCK normal cells versus HeLa cervix adenocarcinoma cells; CC50 MDCK normal cells / HeLa; read-out: Selectivity index (SI) of cytotoxic activity
Protocol: as §1

[21] = Cytotoxicity MTT assay, KB nasopharynx carcinoma; format: cell-based, human; settings: human, MDCK normal cells versus KB nasopharynx carcinoma cells; CC50 MDCK normal cells / KB; read-out: Selectivity index (SI) of cytotoxic activity
Protocol: as §1

Row | Structure (SMILES) | selectivity ratio at 72 h [1] | CC50 [2] | IC50 [3] | IC50 [4] | IC50 [5] | IC50 [6] | CC50 [7] | CC50 [8] | CC50 [9] | IC50 [10] | CC50 [11] | CC50 at 72 h [12] | IC50 [13] | CC50 [14] | selectivity ratio at 72 h [15] | IC50 [16] | Selectivity index (SI) of antiproliferative activity [16] | Selectivity index (SI) of antiproliferative activity [6] | selectivity ratio at 72 h [18] | selectivity ratio at 72 h [19] | other results
1 | CC(C)=CCc1cc(C(=O)/C=C/c2ccccc2)c(O)c(CC=C(C)C)c1O [Compound 2, spinochalcone A] | 9.4 | 9.7 µg/mL and 26 µM | > 100 µM | > 100 µM | 18.7 µg/mL and 50 µM | > 100 µM | > 100 µg/mL | > 100 µg/mL | > 100 µg/mL | > 100 µM | > 100 µg/mL | 92.1 µg/mL and 245 µM | > 100 µM | 6.1 µg/mL and 16.3 µM | 15 | 6 µg/mL and 16 µM | 3.1 | – | – | – | –
2 | CC(C)=CCc1c(O)c(C(=O)/C=C/c2ccccc2)cc2c1OC(C)(C)C=C2 [Compound 1, spinochalcone C] | – | > 100 µg/mL | > 100 µM | > 100 µM | > 100 µM | > 100 µM | > 100 µg/mL | > 100 µg/mL | > 100 µg/mL | > 100 µM | > 100 µg/mL | > 100 µg/mL | > 100 µM | > 100 µg/mL | – | > 100 µM | – | – | – | – | Active concentration on tested cell lines (no activity to the maximum concentration) [17]: > 100 µM
3 | CC(=O)O[C@@]12CO[C@@H]1C[C@H](O)[C@@]1(C)C(=O)[C@H](O)C3=C(C)[C@@H](OC(=O)[C@H](O)[C@@H](NC(=O)OC(C)(C)C)c4ccccc4)C[C@@](O)([C@@H](OC(=O)c4ccccc4)[C@H]21)C3(C)C [Docetaxel, reference compound] | 14 | 0.07 µg/mL and 100 nM | 0.007 µg/mL and 10 nM | 0.01 µg/mL and 20 nM | 0.11 µg/mL and 140 nM | 0.07 µg/mL and 100 nM | 0.07 µg/mL and 100 nM | 0.17 µg/mL and 220 nM | 0.19 µg/mL and 250 nM | 0.05 µg/mL and 70 nM | 0.2 µg/mL and 300 nM | 1.1 µg/mL and 1.4 µM | 0.03 µg/mL and 40 nM | 0.007 µg/mL and 10 nM | 140 | 0.04 µg/mL and 60 nM | 2.3 | 1.4 | 14 | 6.3 | Selectivity index (SI) of antiproliferative activity ([4]; IC50 MDCK normal cells / DU-145): 7; selectivity ratio at 72 h [20]: 5.6; Selectivity index (SI) of antiproliferative activity ([10]; IC50 MDCK normal cells / Hep-2): 2.0; selectivity ratio at 72 h [21]: 4.6; Selectivity index (SI) of antiproliferative activity ([13]; IC50 MDCK normal cells / HeLa): 3.5
4 | C=CC(C)(C)c1cc(C2COc3cc(O)ccc3C2)c(O)c(O)c1OC (stereo not drawn) [Compound 4, secundiflorol G] | 1.8 | 16.5 µg/mL and 46.4 µM | > 100 µM | > 100 µM | 25.4 µg/mL and 72 µM | 21.2 µg/mL and 60 µM | 3.9 µg/mL and 11 µM | 14.7 µg/mL and 41.3 µM | 8.1 µg/mL and 23 µM | > 100 µM | 5.3 µg/mL and 15 µM | 29.7 µg/mL and 83.4 µM | > 100 µM | 21.5 µg/mL and 60.6 µM | 1.3 | > 100 µM | – | 1.2 | 7.6 | 2 | selectivity ratio at 72 h [20]: 3.6; selectivity ratio at 72 h [21]: 5.5

From PMC6332200, “Isolation and Identification of Cytotoxic Compounds from Aeschynomene fascicularis, a Mayan Medicinal Plant” (Molecules, 2015)
